Measurements: ChEMBL document CHEMBL4627246, “Pyroglutamide-Based P2X7 Receptor Antagonists Targeting Inflammatory Bowel Disease” (J Med Chem, 2020)

Assays:
Format in all cases: cell-based
CCRF-CEM = assay: Cytotoxicity against human CCRF-CEM cells assessed as effect on cell growth at 10 uM incubated for 48 hrs by sulforhodamine B assay
SR = assay: Cytotoxicity against human SR cells assessed as effect on cell growth at 10 uM incubated for 48 hrs by sulforhodamine B assay
MOLT-4 = assay: Cytotoxicity against human MOLT4 cells assessed as effect on cell growth at 10 uM incubated for 48 hrs by sulforhodamine B assay; conditions: molt-4, 48 h
K562 = assay: Cytotoxicity against human K562 cells assessed as effect on cell growth at 10 uM incubated for 48 hrs by sulforhodamine B assay; conditions: k562, 48 h
NCI-H322M = assay: Cytotoxicity against human NCI-H322M cells assessed as effect on cell growth at 10 uM incubated for 48 hrs by sulforhodamine B assay
HCC 2998 = assay: Cytotoxicity against human HCC2998 cells assessed as effect on cell growth at 10 uM incubated for 48 hrs by sulforhodamine B assay; conditions: hcc 2998, 48 h
HCT-116 = assay: Cytotoxicity against human HCT116 cells assessed as effect on cell growth at 10 uM incubated for 48 hrs by sulforhodamine B assay; conditions: hct-116, 48 h
KM12 = assay: Cytotoxicity against human KM12 cells assessed as effect on cell growth at 10 uM incubated for 48 hrs by sulforhodamine B assay; conditions: km12, 48 h
SNB-19 = assay: Cytotoxicity against human SNB19 cells assessed as effect on cell growth at 10 uM incubated for 48 hrs by sulforhodamine B assay; conditions: snb-19, 48 h
LOX IMVI = assay: Cytotoxicity against human LOXIMVI cells assessed as effect on cell growth at 10 uM incubated for 48 hrs by sulforhodamine B assay
MDA-MB-435 = assay: Cytotoxicity against human MDA-MB-435 cells assessed as effect on cell growth at 10 uM incubated for 48 hrs by sulforhodamine B assay; conditions: mda-mb-435, 48 h
UACC-62 = assay: Cytotoxicity against human UACC62 cells assessed as effect on cell growth at 10 uM incubated for 48 hrs by sulforhodamine B assay; conditions: uacc-62, 48 h
OVCAR-3 = assay: Cytotoxicity against human OVCAR3 cells assessed as effect on cell growth at 10 uM incubated for 48 hrs by sulforhodamine B assay; conditions: ovcar-3, 48 h
SK-OV-3 = assay: Cytotoxicity against human SKOV3 cells assessed as effect on cell growth at 10 uM incubated for 48 hrs by sulforhodamine B assay; conditions: sk-ov-3, 48 h
ACHN = assay: Cytotoxicity against human ACHN cells assessed as effect on cell growth at 10 uM incubated for 48 hrs by sulforhodamine B assay
RXF 393 = assay: Cytotoxicity against human RXF393 cells assessed as effect on cell growth at 10 uM incubated for 48 hrs by sulforhodamine B assay; conditions: rxf 393, 48 h
TK-10 = assay: Cytotoxicity against human TK10 cells assessed as effect on cell growth at 10 uM incubated for 48 hrs by sulforhodamine B assay; conditions: tk-10, 48 h
DU-145 = assay: Cytotoxicity against human DU145 cells assessed as effect on cell growth at 10 uM incubated for 48 hrs by sulforhodamine B assay; conditions: du-145, 48 h
MCF7 = assay: Cytotoxicity against human MCF7 cells assessed as effect on cell growth at 10 uM incubated for 48 hrs by sulforhodamine B assay; conditions: mcf7, 48 h
MDA-MB-468 = assay: Cytotoxicity against human MDA-MB-468 cells assessed as effect on cell growth at 10 uM incubated for 48 hrs by sulforhodamine B assay; conditions: mda-mb-468, 48 h

Measured: Activity

O=C(NCc1ccc(Cl)cc1Cl)[C@@H]1CCC(=O)N1c1ccccc1
Non-Toxic: all assays above

COc1ccc(NC(=O)[C@@H]2C/C(=C\N(C)C)C(=O)N2)cc1
Non-Toxic: all assays above

CN1C(=O)C(C)(C)C[C@H]1C(=O)NCc1cccc(C(F)(F)F)c1Cl
Non-Toxic: all assays above

CCCCCCN1C(=O)[C@@H]2CCC(=O)N2C1N(C)C (stereo not given in full)
Non-Toxic: all assays above

Cc1ccc(NC(=O)[C@@H]2CCC(=O)N2c2ccccc2)cc1
Non-Toxic: all assays above

O=C(NCc1ccc(Cl)cc1Cl)[C@@H]1CCC(=O)N1c1cncs1
Non-Toxic: all assays above

O=C(NCc1ccc(Cl)cc1Cl)[C@@H]1COC(=O)N1c1cccs1
Non-Toxic: all assays above

O=C(NCC1CCCCC1)[C@@H]1CCC(=O)N1c1ccccc1
Non-Toxic: all assays above

COc1cc(CN/C=C2\C[C@@H](C(=O)NCc3ccc(Cl)cc3Cl)NC2=O)cc(OC)c1OC
Non-Toxic: all assays above

O=C(NCc1ccc(Cl)cc1Cl)c1ccccn1
Non-Toxic: all assays above

O=C(NCc1ccccc1Cl)[C@@H]1CCC(=O)N1Cc1ccc(Cl)cc1
Non-Toxic: all assays above

COc1ccccc1CN1C(=O)[C@@H]2C/C(=C\N(C)C)C(=O)N2C1N(C)C (stereo not given in full)
Non-Toxic: all assays above
